Data on 17 compounds can be found in patent publication US20230212171A1, “ALLOSTERIC EGFR INHIBITORS AND METHODS OF USE THEREOF” (Dana-Farber Cancer Institute, Inc., priority 2020, published 2023).

For orientation: IC50 means the concentration at which inhibition is half-maximal. A lower IC50 goes with greater potency.

The target of one assay is EGFR L858R/T790M (Homo sapiens, UniProt P00533, L858R/T790M). As to the kind of experiment: HTRF-based EGFR biochemical assay (L858R/T790M). The following applies: enzyme 0.02 nM, ATP 100 µM, 30 min preincubation. As for the experimental part:
(§1) EGFR biochemical activity measurements were carried out using the homogeneous time-resolved fluorescence (HTRF) assay (Cisbio). Inhibitors and DMSO normalizations were first dispensed to empty black low-volume 384-well plates (Corning) with D300 digital liquid dispenser (HP). All reactions were carried out at room temperature and solutions were added to plates with a Multidrop Combi Reagent Dispenser (ThermoFisher). The reaction mixture (10 µL final volume) contained 1 µM tyrosine kinase peptide-biotin substrate and mutant EGFR in a reaction buffer (50 mM HEPES pH 7.0, 5 mM MgCl2, 1 mM MnCl2, 0.01% BSA, 2 mM TCEP, 0.1 mM NaVO4). Enzyme concentrations were adjusted to accommodate varying kinase activities (L858R 0.1 nM, L858R/T790M 0.02 nM). Enzyme reaction solution (2× concentrations, 5 µL) was added to 384-well plates containing compounds and incubated for 30 mins. Enzyme reactions were initiated with the addition of 5 µL of ATP to a final concentration of 100 µM and reacted for 20 mins. Reactions were quenched with the addition of 10 µL of phospho-tyrosine antibody-Europium(III) cryptate (1-to-180 volume ratio) and Streptavidin-XL665 (46.7 nM) in EDTA-containing detection buffer, then incubated at room temperature for 1 hour, and read with a PHERAstar plate reader (excitation = 337 nm, emission = 620 nm and 665 nm). IC50 values were determined by inhibition curves (11-point curves from 1.0 µM to 0.130 nM or 23-point curves from 1.0 µM to 0.130 pM) in triplicate with non-linear least squares fit in GraphPad Prism 7.0d.

The next assay addresses EGFR L858R (Homo sapiens, UniProt P00533, L858R). Kind of assay: HTRF-based EGFR biochemical assay (L858R). Particulars: enzyme 0.1 nM, ATP 100 µM, 30 min preincubation. As for the experimental part:
as §1

In assay [1] the target is EGFR mutant L858R/T790M Ba/F3 cells (Homo sapiens, UniProt P00533, T790M/L858R, cells depend on it). As to the kind of experiment: Ba/F3 cell proliferation model (Cell Titer Glo), EGFR L858R/T790M. It is filed as cell-based, murine. Particulars: 72 hours. The text has this: (§2) The EGFR mutant L858R and L858R/T790M Ba/F3 cells have been previously described (Zhou, W., et al. Nature 462, 2009, 1070-1074). All cell lines were maintained in RPMI 1640 (Cellgro; Mediatech Inc., Herndon, CA) supplemented with 10% FBS, 100 units/mL penicillin, 100 units/mL streptomycin. The EGFR I941R mutation was introduced via site directed mutagenesis using the Quick Change Site-Directed Mutagenesis kit (Stratagene; La Jolla, CA) according to the manufacturer’s instructions. All constructs were confirmed by DNA sequencing. The constructs were shuttled into the retroviral vector JP1540 using the Cre-recombination system (Agilent Technologies, Santa Clara, CA). Ba/F3 cells were then infected with retrovirus per standard protocols, as described previously (Zhou, et al, Nature 2009). Stable clones were obtained by selection in puromycin (2 µg/ml).
Sequence of EGFR mutant L858R/T790M Ba/F3 cells (P00533 whole entry T790M/L858R): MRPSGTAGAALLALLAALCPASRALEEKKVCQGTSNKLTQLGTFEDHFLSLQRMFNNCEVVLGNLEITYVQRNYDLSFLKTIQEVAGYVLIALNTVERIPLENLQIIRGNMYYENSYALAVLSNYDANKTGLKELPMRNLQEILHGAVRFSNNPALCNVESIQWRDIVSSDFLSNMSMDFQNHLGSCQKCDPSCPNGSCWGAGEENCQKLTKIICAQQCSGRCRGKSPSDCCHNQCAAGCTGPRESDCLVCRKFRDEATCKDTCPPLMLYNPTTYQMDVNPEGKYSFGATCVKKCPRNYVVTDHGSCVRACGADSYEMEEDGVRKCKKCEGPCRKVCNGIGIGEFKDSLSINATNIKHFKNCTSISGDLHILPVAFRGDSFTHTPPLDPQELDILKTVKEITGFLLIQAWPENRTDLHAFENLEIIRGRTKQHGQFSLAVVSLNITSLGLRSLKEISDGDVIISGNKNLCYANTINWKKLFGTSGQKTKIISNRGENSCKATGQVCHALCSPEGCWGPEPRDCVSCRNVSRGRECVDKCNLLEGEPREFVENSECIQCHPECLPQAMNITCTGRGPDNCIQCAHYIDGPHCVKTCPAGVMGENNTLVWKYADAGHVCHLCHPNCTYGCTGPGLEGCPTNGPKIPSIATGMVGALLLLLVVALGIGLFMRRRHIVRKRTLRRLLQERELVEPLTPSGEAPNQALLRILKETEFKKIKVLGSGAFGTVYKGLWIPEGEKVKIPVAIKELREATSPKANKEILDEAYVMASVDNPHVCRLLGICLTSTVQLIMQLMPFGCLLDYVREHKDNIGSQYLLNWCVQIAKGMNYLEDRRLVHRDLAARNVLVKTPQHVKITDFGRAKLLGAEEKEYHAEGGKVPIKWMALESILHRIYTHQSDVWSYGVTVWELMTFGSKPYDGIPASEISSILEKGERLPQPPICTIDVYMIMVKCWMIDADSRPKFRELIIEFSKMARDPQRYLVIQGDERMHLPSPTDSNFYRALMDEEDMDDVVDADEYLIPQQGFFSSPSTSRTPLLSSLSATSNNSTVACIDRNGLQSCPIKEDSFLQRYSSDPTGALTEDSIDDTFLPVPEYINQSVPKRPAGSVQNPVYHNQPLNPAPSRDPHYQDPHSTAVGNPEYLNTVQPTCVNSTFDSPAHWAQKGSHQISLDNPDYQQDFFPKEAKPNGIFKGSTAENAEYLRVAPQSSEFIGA
(§3) Growth and inhibition of growth was assessed by the Cell Titer Glo assay (Promega, Madison, WI) and was performed according to the manufacturer’s instructions. The Cell Titer Glo assay is a luminescence-based method used to determine the number of viable cells based on quantitation of the ATP present, which is directly proportional to the amount of metabolically active cells present. Ba/F3 cells of different EGFR genotypes were exposed to compounds as a single agent or in combination with 1 µg/mL cetuximab for 72 hours and the number of cells used per experiment was determined empirically as has been previously established (Zhou, et al., Nature 2009). All experimental points were set up in triplicates in 384-well plates and all experiments were repeated at least three times. […] The curves were fitted using a non-linear regression model with a sigmoidal dose response.

The target of assay [2] is EGFR mutant L858R Ba/F3 cells (Homo sapiens, UniProt P00533, L858R, cells depend on it). As to the kind of experiment: Ba/F3 cell proliferation model (Cell Titer Glo), EGFR L858R. Particulars: single agent, 72 hours; read-out: Cell ICso BaF3 EGFR L858R. It is filed as cell-based, murine.
Sequence of EGFR mutant L858R Ba/F3 cells (P00533 whole entry L858R): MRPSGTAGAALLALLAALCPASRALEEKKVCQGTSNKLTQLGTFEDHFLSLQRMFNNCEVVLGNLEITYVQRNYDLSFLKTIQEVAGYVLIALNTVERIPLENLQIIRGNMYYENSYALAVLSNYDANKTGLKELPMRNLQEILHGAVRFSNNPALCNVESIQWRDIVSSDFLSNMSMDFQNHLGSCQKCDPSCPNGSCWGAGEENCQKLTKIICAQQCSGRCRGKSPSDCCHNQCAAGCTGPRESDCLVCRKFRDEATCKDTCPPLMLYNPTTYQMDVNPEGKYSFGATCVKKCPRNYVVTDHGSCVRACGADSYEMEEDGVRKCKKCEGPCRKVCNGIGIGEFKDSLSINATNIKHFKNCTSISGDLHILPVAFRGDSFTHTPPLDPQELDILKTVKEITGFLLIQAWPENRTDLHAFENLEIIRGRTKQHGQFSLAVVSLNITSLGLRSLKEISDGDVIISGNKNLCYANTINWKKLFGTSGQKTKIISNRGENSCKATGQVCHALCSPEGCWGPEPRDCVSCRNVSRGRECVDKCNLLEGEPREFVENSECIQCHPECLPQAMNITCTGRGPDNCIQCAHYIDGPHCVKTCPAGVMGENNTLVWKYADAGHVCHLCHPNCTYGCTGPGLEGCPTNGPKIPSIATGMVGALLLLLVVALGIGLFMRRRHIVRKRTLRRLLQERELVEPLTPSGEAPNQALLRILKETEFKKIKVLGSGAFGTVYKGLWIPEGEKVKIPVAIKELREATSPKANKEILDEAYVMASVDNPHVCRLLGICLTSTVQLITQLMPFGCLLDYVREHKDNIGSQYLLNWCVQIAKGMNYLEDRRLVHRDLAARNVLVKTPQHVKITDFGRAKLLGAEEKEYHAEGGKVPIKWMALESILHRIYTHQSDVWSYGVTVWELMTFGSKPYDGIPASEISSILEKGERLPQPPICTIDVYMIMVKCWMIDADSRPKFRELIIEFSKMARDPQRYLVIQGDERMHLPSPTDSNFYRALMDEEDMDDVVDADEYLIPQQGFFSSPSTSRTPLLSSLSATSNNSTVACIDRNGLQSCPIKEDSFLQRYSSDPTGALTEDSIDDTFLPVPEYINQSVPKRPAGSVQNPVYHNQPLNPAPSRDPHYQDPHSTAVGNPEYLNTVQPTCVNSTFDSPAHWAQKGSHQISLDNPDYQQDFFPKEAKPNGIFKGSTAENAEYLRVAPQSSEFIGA
From the text: as §2, §3

The mark [3] stands for this setting: single agent, read-out: Cell IC50 BaF3 EGFR L858R/T790M.

Structures can show the parent of a compound that is named as a salt. Where two headings read alike, the source gives them in different places.

Sequence of EGFR L858R/T790M (P00533 25-1210 T790M/L858R): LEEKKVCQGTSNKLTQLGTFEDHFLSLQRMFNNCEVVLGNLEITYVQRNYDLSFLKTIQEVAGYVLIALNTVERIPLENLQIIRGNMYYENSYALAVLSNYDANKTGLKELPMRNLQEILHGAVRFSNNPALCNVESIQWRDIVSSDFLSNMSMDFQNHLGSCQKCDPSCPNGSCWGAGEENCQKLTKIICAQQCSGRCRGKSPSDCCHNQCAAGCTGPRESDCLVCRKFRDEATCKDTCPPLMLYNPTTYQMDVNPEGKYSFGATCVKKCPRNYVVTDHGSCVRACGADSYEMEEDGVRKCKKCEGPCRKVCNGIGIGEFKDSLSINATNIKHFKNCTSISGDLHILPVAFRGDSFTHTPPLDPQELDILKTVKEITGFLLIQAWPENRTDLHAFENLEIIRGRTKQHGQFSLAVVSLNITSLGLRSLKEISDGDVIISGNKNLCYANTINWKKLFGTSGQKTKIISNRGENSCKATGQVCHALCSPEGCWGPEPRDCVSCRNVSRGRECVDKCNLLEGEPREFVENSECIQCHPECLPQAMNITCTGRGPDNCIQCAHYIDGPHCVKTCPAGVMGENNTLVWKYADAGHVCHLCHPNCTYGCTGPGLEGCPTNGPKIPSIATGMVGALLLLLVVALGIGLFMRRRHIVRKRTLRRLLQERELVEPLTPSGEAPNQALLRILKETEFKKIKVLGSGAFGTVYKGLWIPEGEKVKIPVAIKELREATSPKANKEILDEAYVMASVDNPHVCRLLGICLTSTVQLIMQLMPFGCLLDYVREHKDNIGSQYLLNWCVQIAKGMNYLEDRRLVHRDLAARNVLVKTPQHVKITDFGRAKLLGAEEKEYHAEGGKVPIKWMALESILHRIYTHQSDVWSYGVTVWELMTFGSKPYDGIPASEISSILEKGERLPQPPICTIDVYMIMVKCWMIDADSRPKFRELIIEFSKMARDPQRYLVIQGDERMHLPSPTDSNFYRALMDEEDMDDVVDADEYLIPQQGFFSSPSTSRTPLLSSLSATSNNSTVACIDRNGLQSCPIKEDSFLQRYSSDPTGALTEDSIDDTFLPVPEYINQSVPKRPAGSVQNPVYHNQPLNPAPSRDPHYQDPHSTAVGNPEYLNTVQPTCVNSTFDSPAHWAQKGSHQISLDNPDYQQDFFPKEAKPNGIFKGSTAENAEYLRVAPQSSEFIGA
Sequence of EGFR L858R (P00533 25-1210 L858R): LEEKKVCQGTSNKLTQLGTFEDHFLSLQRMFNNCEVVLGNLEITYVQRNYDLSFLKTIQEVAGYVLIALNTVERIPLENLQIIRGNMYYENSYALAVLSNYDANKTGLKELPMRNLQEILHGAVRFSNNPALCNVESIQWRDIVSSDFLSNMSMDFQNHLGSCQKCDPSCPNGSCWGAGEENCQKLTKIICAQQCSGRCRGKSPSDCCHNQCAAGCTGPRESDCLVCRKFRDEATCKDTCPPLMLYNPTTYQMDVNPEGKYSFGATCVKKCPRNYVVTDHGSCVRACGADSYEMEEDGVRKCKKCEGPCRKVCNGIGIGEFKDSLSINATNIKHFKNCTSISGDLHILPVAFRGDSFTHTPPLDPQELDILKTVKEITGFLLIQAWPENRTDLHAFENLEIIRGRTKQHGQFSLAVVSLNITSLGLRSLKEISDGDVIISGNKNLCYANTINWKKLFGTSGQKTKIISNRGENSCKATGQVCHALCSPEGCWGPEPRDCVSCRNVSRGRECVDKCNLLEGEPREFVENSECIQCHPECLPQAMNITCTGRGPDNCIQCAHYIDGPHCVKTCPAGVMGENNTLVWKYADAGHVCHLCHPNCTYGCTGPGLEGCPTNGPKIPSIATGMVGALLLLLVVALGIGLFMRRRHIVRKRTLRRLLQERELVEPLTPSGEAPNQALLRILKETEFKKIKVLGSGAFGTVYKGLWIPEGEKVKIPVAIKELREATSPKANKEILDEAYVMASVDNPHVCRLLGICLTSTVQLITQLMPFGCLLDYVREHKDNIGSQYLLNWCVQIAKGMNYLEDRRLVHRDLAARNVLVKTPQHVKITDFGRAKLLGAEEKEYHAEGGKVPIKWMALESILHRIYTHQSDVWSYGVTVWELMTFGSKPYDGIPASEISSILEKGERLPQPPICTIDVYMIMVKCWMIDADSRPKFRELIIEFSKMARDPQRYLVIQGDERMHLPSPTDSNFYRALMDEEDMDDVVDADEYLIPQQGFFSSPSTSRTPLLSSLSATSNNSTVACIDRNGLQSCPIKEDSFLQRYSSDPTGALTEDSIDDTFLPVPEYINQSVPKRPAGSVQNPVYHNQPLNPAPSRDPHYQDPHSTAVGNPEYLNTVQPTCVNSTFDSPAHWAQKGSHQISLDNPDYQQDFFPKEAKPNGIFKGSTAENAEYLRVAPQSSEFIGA

Regarding `CN1CCC(c2ccc(-c3cc4c(=O)n(C(c5nc6ccccc6[nH]5)c5cc(F)ccc5O)ccc4s3)cc2)CC1` (stereo not shown) [Compound 010, 5-[1H-benzimidazol-2-yl-(5-fluoro-2-hydroxy-phenyl)methyl]-2-[4-(1-methyl-4-piperidyl)phenyl]thieno[3,2-c]pyridin-4-one;dihydrochloride], the 50% inhibitory concentration (IC50) at EGFR L858R/T790M was found to be 0.8 nM; against EGFR L858R it was 2 nM. The GI50 came out at 240 nM in assay [1] (setting [3]) and 1080 nM in assay [2].

As to `CN1CCC(c2ccc(-c3nc4c(s3)C(=O)N(C(C(=O)Nc3nccs3)c3cc(F)ccc3O)CC4)cc2)CC1` (stereo not shown) [Compound 021, 2-(5-Fluoro-2-hydroxyphenyl)-2-(2-(4-(1-methylpiperidin-4-yl)phenyl)-4-oxo-6,7-dihydrothiazolo[5,4-c]pyridin-5(4H)-yl)-N-(thiazol-2-yl)acetamide], the values for the IC50 on EGFR L858R/T790M and on EGFR L858R were 0.6 nM and 2 nM, respectively.

With `CN1CCC(c2ccc(-c3ccc4c(c3)N(C)C(=O)N(C(c3nc5ccccc5[nH]3)c3cc(F)ccc3O)C4)cc2)CC1` (stereo not shown) [Compound 017, 3-[1H-benzimidazol-2-yl-(5-fluoro-2-hydroxy-phenyl)methyl]-1-methyl-7-[4-(1-methyl-4-piperidyl)phenyl]-4H-quinazolin-2-one;dihydrochloride], in assay [1] (setting [3]), the GI50 was found to be 1090 nM.

With `CN1CCC(c2ccc(-c3cc4c(s3)CCN(C(c3nc5ccccc5[nH]3)c3cc(F)ccc3O)C4=O)cc2)CC1` (stereo not shown) [Compound 012, 5-[1H-Benzimidazol-2-Yl-(5-Fluoro-2-Hydroxy-Phenyl)Methyl]-2-[4-(1-Methyl-4-Piperidyl)Phenyl]-6,7-Dihydrothieno[3,2-c]Pyridin-4-One;Dihydrochloride], the half-inhibitory concentration (IC50) on EGFR L858R/T790M was determined as 5 nM; on EGFR L858R, 10 nM. Also, the GI50 in assay [1] (setting [3]) came out at 840 nM; in assay [2], 1700 nM.

Regarding `CN1CCC(c2ccc(-c3nc4c(s3)C(=O)N(C(c3nc5ccccc5[nH]3)c3cc(F)ccc3O)CC4)cc2)CC1` (stereo not shown) [Compound 022, 5-((1H-Benzo[d]imidazol-2-yl)(5-fluoro-2-hydroxyphenyl)methyl)-2-(4-(1-methylpiperidin-4-yl)phenyl)-6,7-dihydrothiazolo[5,4-c]pyridin-4(5H)-one], the IC50 against EGFR L858R/T790M is 11 nM; against EGFR L858R, 12 nM.

For the compound `CN1CCC(c2ccc(-c3cc4c(F)cn(C(C(=O)Nc5nccs5)c5cc(F)ccc5O)c(=O)c4s3)cc2)CC1` (stereo not shown) [Compound 019, 2-(4-Fluoro-2-(4-(1-Methylpiperidin-4-Yl)Phenyl)-7-Oxothieno[2,3-c]Pyridin-6(7H)-Yl)-2-(5-Fluoro-2-Hydroxyphenyl)-N-(Thiazol-2-Yl)Acetamide], the IC50 at EGFR L858R/T790M was 0.5 nM; at EGFR L858R it was 0.7 nM.

On to `CN1CCC(c2ccc(-c3cc4c(=O)n(C(c5ccccc5)c5nc6ccccc6[nH]5)ccc4s3)cc2)CC1` (stereo not shown) [Compound 006], for which the IC50 came to 19 nM against EGFR L858R/T790M and 21 nM against EGFR L858R. The GI50 in assay [1] (setting [3]) was 3550 nM; in assay [2] it was 3130 nM.

In the case of `CN1CCC(c2ccc(-c3nc4ccn(C(c5nc6ccccc6[nH]5)c5cc(F)ccc5O)c(=O)c4s3)cc2)CC1` (stereo not shown) [Compound 023, 5-((1H-Benzo[d]imidazol-2-yl)(5-fluoro-2-hydroxyphenyl)methyl)-2-(4-(1-methylpiperidin-4-yl)phenyl)thiazolo[5,4-c]pyridin-4(5H)-one], the IC50 at EGFR L858R/T790M was 3 nM; against EGFR L858R it was 7 nM.

For `CN1CCC(c2ccc(-c3cc4ccn(C(c5nc6ccccc6[nH]5)c5cc(F)ccc5O)c(=O)c4s3)cc2)CC1` (stereo not shown) [Compound 009, 6-[1H-benzimidazol-2-yl-(5-fluoro-2-hydroxy-phenyl)methyl]-2-[4-(1-methyl-4-piperidyl)phenyl]thieno[2,3-c]pyridin-7-one;dihydrochloride], the IC50 came out at 0.6 nM against EGFR L858R/T790M and 2 nM at EGFR L858R. Besides, the GI50 in assay [1] (setting [3]) was 20 nM; in assay [2], 70 nM.

Consider `CN1CCC(c2ccc(-c3cc4ncn(C(c5ccccc5)c5nc6ccccc6[nH]5)c(=O)c4s3)cc2)CC1` (stereo not shown) [Compound 004, 3-((1H-benzo[d]imidazol-2-yl)(phenyl)methyl)-6-(4-(1-methylpiperidin-4-yl)phenyl)thieno[3,2-d]pyrimidin-4(3H)-one], for which the IC50 at EGFR L858R/T790M and against EGFR L858R was over 100 nM each time. Besides, the GI50 in assay [1] (setting [3]) turned out to be 3680 nM; in assay [2], 4570 nM.

Take `CN1CCC(c2ccc(-c3cc4c(=O)n(C(C(=O)Nc5nccs5)c5ccccc5)cnn4c3)cc2)CC1` (stereo not shown) [Compound 001, 2-(6-(4-(1-Methylpiperidin-4-Yl)Phenyl)-4-Oxopyrrolo[2,1-f][1,2,4]-Triazin-3(4H)-Yl)-2-Phenyl-N-(Thiazol-2-yl)Acetamide;Hydrochloride]: the IC50 at EGFR L858R/T790M amounted to 1 nM; at EGFR L858R it was 5 nM. Also, the GI50 in assay [1] (in combination with 1 µg/mL cetuximab, read-out: Cell IC50 BaF3 EGFR L858R/T790M (+ cetux.)) was found to be 90 nM; in assay [1] (setting [3]) it was 2300 nM.

`[2H]C(c1nc2ccccc2[nH]1)(c1cc(F)ccc1O)n1ccc2cc(-c3ccc(C4CCN(C)CC4)cc3)sc2c1=O` (stereo not shown) [Compound 024, 6-((1H-Benzo[d]Imidazol-2-yl)(5-Fluoro-2-Hydroxyphenyl)Methyl-d)-2-(4-(1-Methylpiperidin-4-Yl)Phenyl)Thieno[2,3-c]Pyridin-7(6H)-One]: the 50% inhibitory concentration (IC50) at EGFR L858R/T790M came to 0.7 nM; on EGFR L858R, 2 nM.

On to `CN1CCC(c2ccc(-c3cc4ccn([C@@H](c5nc6ccccc6[nH]5)c5cc(F)ccc5O)c(=O)c4s3)cc2)CC1` (single isomer, unassigned) [Compound 015], for which the IC50 came to 0.2 nM against EGFR L858R/T790M and 0.9 nM against EGFR L858R. The values for the GI50 in assay [1] (setting [3]) and in assay [2] were 10 nM and 40 nM, respectively.

For the compound `CN1CCC(c2ccc(-c3cc4c(s3)C(=O)N(C(c3nc5ccccc5[nH]3)c3cc(F)ccc3O)C4)cc2)CC1` (stereo not shown) [Compound 014, 5-[1H-benzimidazol-2-yl-(5-fluoro-2-hydroxy-phenyl)methyl]-2-[4-(1-methyl-4-piperidyl)phenyl]-4H-thieno[2,3-c]pyrrol-6-one;dihydrochloride], the IC50 on EGFR L858R/T790M and against EGFR L858R was 21 nM in each case. The GI50 in assay [1] (setting [3]) was 1180 nM; in assay [2], 1330 nM.

In the case of `CN1CCC(c2ccc(-c3cc4c(F)cn(C(c5nc6ccccc6[nH]5)c5cc(F)ccc5O)c(=O)c4s3)cc2)CC1` (stereo not shown) [Compound 020, 6-((1H-Benzo[d]Imidazol-2-Yl)(5-Fluoro-2-Hydroxyphenyl)Methyl)-4-Fluoro-2-(4-(1-methylpiperidin-4-Yl)Phenyl)Thieno[2,3-c]Pyridin-7(6H)-One], the 50% inhibitory concentration (IC50) at EGFR L858R/T790M and at EGFR L858R was 0.2 nM throughout.

As to `CN1CCC(c2ccc(-c3cc4ccn([C@H](c5nc6ccccc6[nH]5)c5cc(F)ccc5O)c(=O)c4s3)cc2)CC1` (single isomer, unassigned) [Compound 016], the IC50 against EGFR L858R/T790M is 17 nM; on EGFR L858R, 41 nM.

In the case of `CN1CCC(c2ccc(-c3cc4ccn(C(c5ccccc5)c5cc6ccccc6[nH]5)c(=O)c4s3)cc2)CC1` (stereo not shown) [Compound 025, 6-((1H-Indol-2-Yl)(Phenyl)Methyl)-2-(4-(1-Methylpiperidin-4-Yl)Phenyl)Thieno[2,3-c]Pyridin-7(6H)-One], the 50% inhibitory concentration (IC50) against EGFR L858R/T790M is 7 nM; at EGFR L858R it was 9 nM.
